Test results as given in US7741350B1 (Cara Therapeutics, Inc., priority 2009, dated 2010).
Like-named read-outs stand apart in the source and are kept apart here.

Key:
[1] = target: human CB1 receptor (hCB1) (Homo sapiens, UniProt P21554); assay: cAMP assay at human CB1 receptor; assay type: cell-based; details: hCB1R; maximum measurable range 30 μM; read-out: EC50 (Potency at Human CB1 determined by cAMP Assay)
Procedure: The ability of each of the compounds to act as agonists or inverse agonists at human CB2 and CB1 receptors (hCB2, hCB1, respectively) and at the rat CB2 receptor (rCB2) was determined by measuring changes in intracellular cyclic AMP (cAMP) levels as described in U.S. Pat. No. 7,517,874.
TR-FRET was measured using a 330-380 nm excitation filter, 615 nm and 665 nm emission filters, dichroic minor 380 nm and Z=10 mm. cAMP concentrations in each well were back-calculated from a cAMP standard curve run concurrently during each assay. Each plate contained 16 wells of forskolin stimulated cells and 16 wells of forskolin plus 1 μM CP55,940-treated cells. Concentrations of cAMP were expressed as a percent of the difference of these two groups of wells. Concentration-response data including EC50 (the concentration of compound producing 50% of the maximal response) and intrinsic activity (the percent maximal activation compared to full activation by CP55, 940) were determined using a four-parameter non-linear regression algorithm (CambridgeSoft Bioassay).

[2] = target: human CB2 receptor (hCB2) (Homo sapiens, UniProt P34972); assay: cAMP assay at human CB2 receptor; assay type: cell-based; details: hCB2R, maximum measurable range 30 μM
Sequence of human CB2 receptor (hCB2) (P34972 whole entry): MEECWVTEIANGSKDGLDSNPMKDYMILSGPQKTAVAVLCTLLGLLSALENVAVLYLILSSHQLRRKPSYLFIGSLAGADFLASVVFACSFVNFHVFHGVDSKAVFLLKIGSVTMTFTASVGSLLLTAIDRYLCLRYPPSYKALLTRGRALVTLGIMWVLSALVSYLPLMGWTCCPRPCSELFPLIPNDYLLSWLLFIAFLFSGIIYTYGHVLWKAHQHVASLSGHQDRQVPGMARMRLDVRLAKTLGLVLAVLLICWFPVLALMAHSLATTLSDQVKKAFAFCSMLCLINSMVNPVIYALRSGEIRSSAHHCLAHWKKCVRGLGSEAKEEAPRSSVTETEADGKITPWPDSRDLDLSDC
Procedure: TR-FRET was measured using a 330-380 nm excitation filter, 615 nm and 665 nm emission filters, dichroic minor 380 nm and Z=10 mm. cAMP concentrations in each well were back-calculated from a cAMP standard curve run concurrently during each assay. Each plate contained 16 wells of forskolin stimulated cells and 16 wells of forskolin plus 1 μM CP55,940-treated cells. Concentrations of cAMP were expressed as a percent of the difference of these two groups of wells.

[3] = test system: male Sprague-Dawley rats; assay: Anti-hyperalgesia in the Complete Freund's Adjuvant (CFA) model of inflammatory pain; assay type: in vivo; details: PO dose 3 mg/kg; 1 hr after dosing; thermal hyperalgesia; rat; read-out: % MPE (1 hr), paw withdrawal latency after CFA injection
Procedure: The anti-hyperalgesic effects of test compounds in the Complete Freund's Adjuvant (CFA) model of inflammatory pain were determined essentially as described in U.S. Pat. No. 7,517,874 using male Sprague-Dawley rats (Hsd: Sprague-Dawley®SD®, Harlan, Indianapolis, Ind.) weighing 200-300 grams.
Test compounds were prepared in a Cremaphor vehicle mixture of 1:1:18 CremophorEL:ethanol:water. Cremophor was obtained from Sigma Chemical (St. Louis, Mo.). The vehicle mixture or vehicle mixture plus test compound were each administered orally.
Assessment of thermal hyperalgesia: Baseline and post-treatment paw withdrawal latencies to a noxious thermal stimulus were measured using a plantar test apparatus (Ugo Basile; obtained from Stoelting, Wood Dale, Ill.). This apparatus generates an infrared heat source that is linearly increasing in intensity. To avoid tissue damage, the power to the heat source was cut off after 20 seconds.
Paw withdrawal latency is defined as the time required for the rat to flick its paw away from the thermal stimulus. Ibuprofen (100 mg/kg, p.o.) was used as the positive control. Paw withdrawal latencies (in seconds) were measured before (naïve paw latency, L1) and 24 hr following (CFA-inflamed paw latency, L2) a single intraplantar injection of 0.1 mL CFA (Sigma-Aldrich, cat F5881, Mycobacterium tuberculosis 1 mg/ml).
Test compounds were administered orally 23 hours following CFA injection; i.e., 1 hour prior to thermal assessment (compound treated CFA-inflamed paw latency, L3). The mean paw withdrawal latency and standard error of the mean (SEM) was determined for the injured paws for each treatment group.
Data were expressed as percent maximum […] effect (% MPE) defined as the percentage of restoration of latency of test compound-treated CFA inflamed paw as compared to the naïve paw latency.

[4] = read-out: EC50 (Potency at Human CB2 determined by cAMP Assay)
[5] = EC50 (Potency at Human CB2 determined by cAMP Assay)

Sequence of human CB1 receptor (hCB1) (P21554 whole entry): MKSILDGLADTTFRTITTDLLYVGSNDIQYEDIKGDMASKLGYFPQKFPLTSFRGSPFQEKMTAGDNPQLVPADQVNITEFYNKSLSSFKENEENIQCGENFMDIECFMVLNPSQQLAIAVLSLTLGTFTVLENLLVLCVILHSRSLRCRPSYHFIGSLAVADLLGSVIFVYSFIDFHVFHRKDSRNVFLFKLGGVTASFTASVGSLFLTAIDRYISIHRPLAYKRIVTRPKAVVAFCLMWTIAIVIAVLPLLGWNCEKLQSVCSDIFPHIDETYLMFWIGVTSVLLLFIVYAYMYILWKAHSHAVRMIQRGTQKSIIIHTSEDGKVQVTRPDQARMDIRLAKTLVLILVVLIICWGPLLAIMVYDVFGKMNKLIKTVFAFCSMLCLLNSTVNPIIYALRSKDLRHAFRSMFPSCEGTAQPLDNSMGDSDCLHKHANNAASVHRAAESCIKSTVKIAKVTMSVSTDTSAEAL

CCOC(=O)N1CCN(C(=O)[C@@H](NC(=O)n2nc(-c3cc(F)c(F)cc3F)c3c2CCN(C)C3)C(C)(C)C)CC1 [Compound 77, (S)-ethyl 4-(3,3-dimethyl-2-(5-methyl-3-(2,4,5-trifluorophenyl)-4,5,6,7-tetrahydro-1H-pyrazolo[4,3-c]pyridine-1-carboxamido)butanoyl)piperazine-1-carboxylate]
EC50 [1]: < 1000 nM | EC50 [2, 4]: > 1000 nM

CN1CCc2c(c(-c3cc(F)c(F)cc3F)nn2C(=O)N[C@H](C(=O)N2CCC[C@H](O)C2)C(C)(C)C)C1 [Compound 78]
EC50 [1]: < 1000 nM | EC50 [2, 4]: > 1000 nM

CN1CCc2c(c(-c3cc(F)c(F)cc3F)nn2C(=O)N[C@H](C(=O)N2CCC(C(N)=O)CC2)C(C)(C)C)C1 [Compound 79, (S)—N-(1-(4-carbamoylpiperidin-1-yl)-3,3-dimethyl-1-oxobutan-2-yl)-5-methyl-3-(2,4,5-trifluorophenyl)-4,5,6,7-tetrahydro-1H-pyrazolo[4,3-c]pyridine-1-carboxamide]
EC50 [1]: < 1000 nM | EC50 [2, 4]: > 1000 nM

CN1CCc2c(c(-c3cc(F)c(F)cc3F)nn2C(=O)N[C@H](C(=O)NCCCO)C(C)(C)C)C1 [Compound 80, (S)—N-(1-(3-hydroxypropylamino)-3,3-dimethyl-1-oxobutan-2-yl)-5-methyl-3-(2,4,5-trifluorophenyl)-4,5,6,7-tetrahydro-1H-pyrazolo[4,3-c]pyridine-1-carboxamide]
EC50 [1]: < 1000 nM | EC50 [2, 4]: > 1000 nM

CN1CCc2c(c(-c3cc(F)ccc3F)nn2C(=O)N[C@H](C(=O)O)C(C)(C)C)C1 [Compound 81, (S)-2-(3-(2,5-difluorophenyl)-5-methyl-4,5,6,7-tetrahydro-1H-pyrazolo[4,3-c]pyridine-1-carboxamido)-3,3-dimethylbutanoic acid]
EC50 [1]: > 30000 nM | EC50 [2, 4]: > 30000 nM

CCN1CCc2c(c(-c3cc(F)ccc3F)nn2C(=O)N[C@H](C(=O)O)C(C)(C)C)C1 [Compound 82, (S)-2-(3-(2,5-difluorophenyl)-5-ethyl-4,5,6,7-tetrahydro-1H-pyrazolo[4,3-c]pyridine-1-carboxamido)-3,3-dimethylbutanoic acid]
EC50 [1]: > 30000 nM | EC50 [2, 5]: > 30000 nM

CCOC(=O)CN1CCc2c(c(-c3cc(F)c(F)cc3F)nn2C(=O)N[C@H](C(=O)NC)C(C)(C)C)C1 [Compound 83, (S)-ethyl 2-(1-(3,3-dimethyl-1-(methylamino)-1-oxobutan-2-ylcarbamoyl)-3-(2,4,5-trifluorophenyl)-6,7-dihydro-1H-pyrazolo[4,3-c]pyridin-5(4H)-yl)acetate]
EC50 [1]: < 1000 nM | EC50 [2, 4]: > 1000 nM

CNC(=O)[C@@H](NC(=O)n1nc(-c2cc(F)c(F)cc2F)c2c1CCNC2)C(C)(C)C [Compound 84, (S)—N-(3,3-dimethyl-1-(methylamino)-1-oxobutan-2-yl)-3-(2,4,5-trifluorophenyl)-4,5,6,7-tetrahydro-1H-pyrazolo[4,3-c]pyridine-1-carboxamide]
EC50 [1]: < 1000 nM | EC50 [2, 5]: < 1000 nM

CNC(=O)[C@@H](NC(=O)n1nc(-c2cc(F)c(F)cc2F)c2c1CCN(CCO)C2)C(C)(C)C [Compound 85, (S)—N-(3,3-dimethyl-1-(methylamino)-1-oxobutan-2-yl)-5-(2-hydroxyethyl)-3-(2,4,5-trifluorophenyl)-4,5,6,7-tetrahydro-1H-pyrazolo[4,3-c]pyridine-1-carboxamide]
EC50 [1]: < 1000 nM | EC50 [2, 5]: < 1000 nM

CC(C)(C)[C@H](NC(=O)n1nc(-c2cc(Cl)ccc2F)c2c1CCOC2)C(=O)NCCO [Compound 86, (S)-3-(5-chloro-2-fluorophenyl)-N-(1-(2-hydroxyethylamino)-3,3-dimethyl-1-oxobutan-2-yl)-6,7-dihydropyrano[4,3-c]pyrazole-1(4H)-carboxamide]
EC50 [1]: < 1000 nM | EC50 [2, 5]: < 1000 nM | inhibition in vivo at 3 mg/kg [3]: 27%

CC(C)(C)[C@H](NC(=O)n1nc(-c2cc(F)ccc2F)c2c1CCOC2)C(=O)NCCO [Compound 87, (S)-3-(2,5-difluorophenyl)-N-(1-(2-hydroxyethylamino)-3,3-dimethyl-1-oxobutan-2-yl)-6,7-dihydropyrano[4,3-c]pyrazole-1(4H)-carboxamide]
EC50 [1]: < 1000 nM | EC50 [2, 5]: < 1000 nM | inhibition in vivo at 3 mg/kg [3]: 50%

CC(C)(C)[C@H](NC(=O)n1nc(-c2ccc(Cl)cc2F)c2c1CCOC2)C(=O)NCCO [Compound 88, (S)-3-(4-chloro-2-fluorophenyl)-N-(1-(2-hydroxyethylamino)-3,3-dimethyl-1-oxobutan-2-yl)-6,7-dihydropyrano[4,3-c]pyrazole-1(4H)-carboxamide]
EC50 [1]: < 1000 nM | EC50 [2, 4]: < 1000 nM | inhibition in vivo at 3 mg/kg [3]: 47%

CN1CCc2c(-c3cc(F)c(F)cc3F)nn(C(=O)N[C@H](C(=O)NCCO)C(C)(C)C)c2C1 [Compound 89, (S)—N-(1-(2-hydroxyethylamino)-3,3-dimethyl-1-oxobutan-2-yl)-6-methyl-3-(2,4,5-trifluorophenyl)-4,5,6,7-tetrahydro-1H-pyrazolo[3,4-c]pyridine-1-carboxamide]
EC50 [1]: < 1000 nM | EC50 [2, 5]: < 1000 nM | inhibition in vivo at 3 mg/kg [3]: 52%

CN1CCc2c(-c3ccc(F)c(F)c3)nn(C(=O)N[C@H](C(=O)NCCO)C(C)(C)C)c2C1 [Compound 90, (S)-3-(3,4-difluorophenyl)-N-(1-(2-hydroxyethylamino)-3,3-dimethyl-1-oxobutan-2-yl)-6-methyl-4,5,6,7-tetrahydro-1H-pyrazolo[3,4-c]pyridine-1-carboxamide]
EC50 [1]: < 1000 nM | EC50 [2, 4]: > 1000 nM | inhibition in vivo at 3 mg/kg [3]: 25%

CN1CCCc2c1c(-c1ccc(F)c(F)c1)nn2C(=O)N[C@H](C(=O)NCCO)C(C)(C)C [Compound 91, (S)-3-(3,4-difluorophenyl)-N-(1-(2-hydroxyethylamino)-3,3-dimethyl-1-oxobutan-2-yl)-4-methyl-4,5,6,7-tetrahydro-1H-pyrazolo[4,3-b]pyridine-1-carboxamide]
EC50 [1]: < 1000 nM | EC50 [2, 4]: < 1000 nM | inhibition in vivo at 3 mg/kg [3]: 47%

CN1CCCc2c1c(-c1cc(F)ccc1F)nn2C(=O)N[C@H](C(=O)NCCO)C(C)(C)C [Compound 92, (S)-3-(2,5-difluorophenyl)-N-(1-(2-hydroxyethylamino)-3,3-dimethyl-1-oxobutan-2-yl)-4-methyl-4,5,6,7-tetrahydro-1H-pyrazolo[4,3-b]pyridine-1-carboxamide]
EC50 [1]: < 1000 nM | EC50 [2, 5]: < 1000 nM | inhibition in vivo at 3 mg/kg [3]: 23%

CN1CCc2c(-c3cc(F)ccc3F)nn(C(=O)N[C@H](C(=O)NCCO)C(C)(C)C)c2C1 [Compound 93, (S)-3-(2,5-difluorophenyl)-N-(1-(2-hydroxyethylamino)-3,3-dimethyl-1-oxobutan-2-yl)-6-methyl-4,5,6,7-tetrahydro-1H-pyrazolo[3,4-c]pyridine-1-carboxamide]
EC50 [1]: < 1000 nM | EC50 [2, 5]: < 1000 nM | inhibition in vivo at 3 mg/kg [3]: 28%

CC(C)(C)[C@H](NC(=O)n1nc(-c2cc(F)c(F)cc2F)c2c1COCC2)C(=O)NCCO [Compound 97, (S)—N-(1-(2-hydroxyethylamino)-3,3-dimethyl-1-oxobutan-2-yl)-3-(2,4,5-trifluorophenyl)-4,5-dihydropyrano[3,4-c]pyrazole-1(7H)-carboxamide]
EC50 [1]: < 1000 nM | EC50 [2, 5]: < 1000 nM

CCOC(=O)CN1CCCc2c1c(-c1ccc(F)c(F)c1)nn2C(=O)N[C@H](C(=O)NC)C(C)(C)C [Compound 100, (S)-ethyl 2-(3-(3,4-difluorophenyl)-1-(3,3-dimethyl-1-(methylamino)-1-oxobutan-2-ylcarbamoyl)-6,7-dihydro-1H-pyrazolo[4,3-b]pyridin-4(5H)-yl)acetate]
EC50 [1]: < 1000 nM | EC50 [2, 5]: < 1000 nM
